Assay results from EP3120851A1, “4-AMINO-6-(2,6-DICHLOROPHENYL)-8-METHYL-2-(PHENYLAMINO)-PYRIDO[2,3-D]PYRIMIDIN-7(8H)-ONE FOR TREATMENT OF SOLID CANCERS” (Pangaea Biotech S.L., priority 2015, dated 2017).
pIC50: −log10 of the molar value. Read-outs that look alike come from different tables or passages of the source.

Experiments:
Format in all cases: cell-based
[1] = tested on: I638F; assay: MTT proliferation assay, single agent; details: SCC Lung, DDR2 mutated, 72 h, mean of several independent experiments
Procedure: The compound of formula (1) was tested using a Thiazolyl Blue Tetrazolium Bromide (MTT) proliferation assay in a panel of tumor cell lines of different origins.
All culture materials were obtained from Biological Industries (Kibbutz Beit Haemek, Israel) or Invitrogen (Paisley, Scotland, United Kingdom). The non-tumor cell lines HF and HACAT were provided by Vall d'Hebrón Hospital and GmbH, respectively. The PC9 naïve cell line was provided by Mayumi Ono and, the H3122, HCC78 and 11-18 by Daniel Costa. The PC9-GR1, PC9-GR2, PC9-GR3, PC9-GR4, PC9-GR5 and PC9-ER cell lines were derived in house by exposing the parental PC9 cell line to increasing concentrations of erlotinib (ER) or gefitinib (GR). The rest of the cell lines in which compound (1) was tested were purchased from ATCC (H23, H1975, H2228, A549, H460, Calu-6, H1650, SK-MES-1, EBC1, SNU1, AGS, N87, PC3, BxPC3, DLD1, HT29, SW48, SCC9,FaDu, AU565, Gingival, Prostate, SU-DHL-1 and A431). All cell lines were maintained in RPMI medium supplemented with 10% FBS, 50 µg/mL penicillin-streptomycin and 2 mM L-Glutamine. All cells were grown in a humidified atmosphere with 5% CO2 at 37°C.
Cell viability in response to single agent treatment was assessed by the Thiazolyl Blue Tetrazolium Bromide (MTT) (Sigma, St Louis, MO) assay. Cells from each cell line were seeded at 2000 to 10000 per well in 96-well plates. […] After treatment, cells were incubated with medium containing MTT (0.75 mg/mL in medium) for 1-2 h at 37°C. Culture medium with MTT was removed and formazan crystals reabsorbed in 100 µL DMSO (Sigma, St. Louis, MO). Cell viability was determined by measuring the absorbance at 492 nm, using a microplate reader (BioWhittaker, Walkersville, MD).
The IC50s shown are the mean of several independent experiments. Standard errors are also listed Table 2. SCC means squamous cell carcinoma, ADC means adenocarcinoma, GBM means glioblastoma.

[2] = tested on: H2228 Cells; assay: MTT cell viability assay, combinations (Chou-Talalay method); details: Homo sapiens, NCI-H2228
Procedure: (§1) The combinations comprising the compound of formula (1) were tested using an MTT proliferation assay in a panel of tumor cell lines of different origins. All culture materials were obtained from the sources described in Example 2. In the Chou-Talalay method, which is the standard, universally known methodology to determine drug interactions, the two drugs under study are maintained at a fixed ratio of IC50 single agent (drug 1):IC50 single agent (drug 2) while the concentration of total amount of drugs in the combination is varied and the 20% (IC20), 50% (IC50) and 80% (IC80) of growth inhibition of the combination is determined.
(§2) In the activity assays on cell lines the following terms are used: • IC50: Drug concentration at which 50% growth inhibition is achieved. • TKI IC50: The IC50 of the tyrosine kinase inhibitor as single agent. • Compound (1) IC50: The IC50 of compound (1) as single agent. • CI@IC20: The combination index of the combination consisting of drug 1 and drug 2 at a weight ratio equal to IC50 of drug 1:IC50 of drug 2 wherein said combination is used at a total amount that achieves 20% of growth inhibition. • CI@IC50: The combination index of the combination consisting of drug 1 and drug 2 at a weight ratio equal to IC50 of drug 1:IC50 of drug 2, wherein said combination is used at a total amount that achieves 50% of growth inhibition. • CI@IC80: The combination index of the combination consisting of drug 1 and drug 2 at a weight ratio equal to IC50 of drug 1:IC50 of drug 2, wherein said combination is used at a total amount that achieves 80% of growth inhibition. • Combination TKI IC50: The combination index at a tyrosine kinase inhibitor concentration that corresponds to the IC50 (single agent). • The combination index (CI) concept was introduced by Chou T.C. and Talalay P.(Chou TC, Talalay P. Adv Enzyme Regul 1984;22:27-55). The derived combination index equation for two drugs is (D = dosage or concentration): CI = ((D)1)/((Dx)1) + ((D)2)/((Dx)2) [formula] where (Dx)1 is the concentration of drug 1 "alone" that inhibits growth at a x% (i.e. (D50)1 is the concentration of drug 1 "alone" that inhibits growth at a 50%), (Dx)2 is the concentration of drug 2 "alone" that inhibits growth at a x%, (D)1 and (D)2 refer to the concentration of drug 1 and drug 2, respectively, in the combination, wherein the combination inhibits growth at the same x%. The CI Value quantitatively defines synergism (CI<1) (in particular, CI values of CI<0.7 indicates strong synergism, 0.7<CI<0.85 indicates moderate synergism, 0.85<CI<1 indicates slight synergism), additive effect (CI=1) and antagonism (CI>1). Based on the above equation, a plot of CI values at different effect levels (fa's) can be determined. Entering a series of "dose" ((D1), (D2), ((Dx)1 and (Dx)2) and % of growth inhibition (%x or effect (fa))" into an excel sheet for each drug alone and their combinations, the CI values at different x% (or fa levels) are obtained using the above equation. This plot is also called the Fa-CI plot or the Chou-Talalay plot.
(§3) Cell viability in response to combination treatment was assessed by the Thiazolyl Blue Tetrazolium Bromide (MTT) (Sigma, St Louis, MO) assay. Cells from each cell line were seeded at 2000 to 10000 per well in 96-well plates. […] Twenty-four hours after seeding, cells were exposed to compound (1), commercial drug or combinations thereof for 72 h. In the Chou-Talalay method, which is the standard, universally known methodology to determine drug interactions, the two drugs under study are maintained at a fixed ratio IC50 single agent (drug 1):IC50 single agent (drug 2).
(§4) After treatment, cells were incubated with medium containing MTT (0.75 mg/mL in medium) for 1-2 h at 37°C. Culture medium with MTT was removed and formazan crystals reabsorbed in 100 µL DMSO (Sigma, St. Louis, MO). Cell viability was determined by measuring the absorbance at 492 nm, using a microplate reader (BioWhittaker, Walkersville, MD).

[3] = tested on: H3122 Cells; assay: as above; details: Homo sapiens
Procedure: as §1, §2, §3, §4

[4] = tested on: HCC78 cells; assay: as above; details: Homo sapiens
Procedure: as §1, §2, §3, §4

`Cn1c(=O)c(-c2c(Cl)cccc2Cl)cc2c(N)nc(Nc3ccccc3)nc21` [Compound (1), 4-amino-6-(2,6-dichlorophenyl)-8-methyl-2-(phenylamino)-pyrido[2,3-d]pyrimidin-7(8H)-one] was tested, and the pIC50 [1] was 7.00, the pIC50 ([2]; H2228 cells, compound (1) as single agent, 72 h, read-out: Compound (1) IC50) was 6.09 and the pIC50 ([2]; read-out: Combination Compound (1) IC50) was 6.39. It also gave a pIC50 ([3]; NCI-H3122, 72 h, H3122 cells, compound (1) as single agent, 72 h, read-out: Compound (1) IC50) of 5.89, a pIC50 ([3]; NCI-H3122, H3122 cells, compound (1) in combination with Alectinib, read-out: Combination Compound (1) IC50) of 6.62 and a pIC50 ([3]; NCI-H3122, H3122 cells, compound (1) in combination with Crizotinib, read-out: Combination Compound (1) IC50) of 6.30. The pIC50 ([4]; HCC78, 72 h, HCC78 cells, compound (1) as single agent, 72 h, read-out: Compound (1) IC50) was 6.10, the pIC50 ([4]; HCC78, HCC78 cells, compound (1) in combination with Crizotinib, read-out: Combination Compound (1) IC50) was 6.37 and the pIC50 ([4]; HCC78, HCC78 cells, compound (1) in combination with Foretinib, read-out: Combination Compound (1) IC50) was 6.68.
